These results are taken from PubChem BioAssay AID1996.

In brackets after ≈: the same amount, converted by molar mass.

The conditions of this data set: buffer; pH 7.4; 200.0 µM.
The term kinetic solubility denotes solubility judged after dilution from a stock solution rather than from solid. The molecule `N#Cc1nc(COc2ccc(F)cc2)oc1N1CCCCC1` gave a kinetic solubility of 11.7 µg/mL (≈ 38.8 µM). Then `Cc1ccc(-c2nc(N)s[n+]2-c2ccccc2)cc1.[Br-]`, with 21 µg/mL; and `OCCCC1CCCCN1Cc1nc(Cc2ccccc2Cl)no1` (centres undefined), with 43.4 µg/mL (≈ 124 µM).

As to `COc1cccc(CN2CCCCC2C(=O)O)c1` (centres undefined), the solubility (kinetic) was more than 37.4 µg/mL. Then `O=C1c2ccccc2C2(c3ccccc3)NCCCN12` (centres undefined), with more than 39.6 µg/mL. The molecule `CCNC(=O)NC(=O)C(C)OC(=O)CCCc1nc2ccccc2s1` (centres undefined) registered a solubility (kinetic) of 49.4 µg/mL (≈ 136 µM). Then `Cc1ccc(OCC(O)CN2CCOCC2)cc1C.Cl` (centres undefined), with more than 45.3 µg/mL; and `CCOc1cc(/C=C2\N=C(C)OC2=O)cc(Cl)c1OCC(=O)OC`, with 23.1 µg/mL (≈ 65.3 µM); and `CC(=O)N1CCN(c2nnc(-c3ccccc3)c3ccccc23)CC1`, with more than 49.9 µg/mL. Molecule `COc1ccc(Cl)cc1CN1CCOCC1.Cl` gave a kinetic solubility of more than 41.7 µg/mL.

Regarding `CC(=O)N1CCN(c2c(F)c(F)c(C(F)(F)F)c(F)c2F)CC1`, the solubility (kinetic) amounted to 47.9 µg/mL (≈ 139 µM). `CCN(CC(=O)N1CCOCC1)S(=O)(=O)c1ccc(F)cc1` returned a kinetic solubility of 41.2 µg/mL (≈ 125 µM). Molecule `Cc1ccnc(NC(=O)Cc2ccc(-c3ccccc3)cc2)c1` registered a solubility (kinetic) of 4.3 µg/mL (≈ 14.2 µM). Compared with the last molecule, the solubility kinetic is about 9.6-fold lower. For `O=C(Nc1ccc(Oc2ccccc2)cc1)N[C@@H](Cc1ccccc1)C(=O)O` the value was more than 56.5 µg/mL. Then `Cc1noc2ncnc(Oc3ccccc3Cl)c12`, with 28 µg/mL (≈ 107 µM); and `COc1ccc(NC(=O)c2ccc(S(=O)(=O)N3CCOCC3)o2)cc1`, with 10.7 µg/mL (≈ 29.2 µM). Then `Clc1ccc(-c2nc(N3CCOCC3)nc3ccccc23)cc1`, with less than 0.2 µg/mL; and `N/C(=N\O)c1ccc(Cl)cc1Cl`, with 30 µg/mL (≈ 146 µM); and `Nc1ccc(-c2nc(-c3ccccc3)nc3ccccc23)cc1`, with 0.5 µg/mL (≈ 1.68 µM).

Turning to `Nc1cc([N+](=O)[O-])cc2oc(-c3ccccc3)cc12`, the solubility (kinetic) is less than 0.3 µg/mL.

Turning to `COc1ccc(-c2csc(-c3ccc(O)cc3)n2)cc1`, the kinetic solubility was less than 0.6 µg/mL. Then `CC(=O)c1ccc(NC(=S)Nc2cccc(Cl)c2C)cc1`, with 40.7 µg/mL (≈ 128 µM). `COc1ccc(NC(=O)CC2SC(N3CCCC3)=NC2=O)cc1Cl` (centres undefined) came in with a solubility (kinetic) of 6.8 µg/mL (≈ 18.5 µM). Then `CCN(CC)C(=O)CN1C(=O)/C(=C/c2ccccc2)SC1=S`, with 2.5 µg/mL (≈ 7.47 µM); and `N#Cc1ccccc1CCN1C(=O)c2ccccc2C1=O`, with 19.6 µg/mL (≈ 70.9 µM). Molecule `CC(=O)N1CCN=C1SCc1cccc(C)c1` displayed a solubility (kinetic) of 33.7 µg/mL (≈ 136 µM). Then `COC(=O)CCC(=O)Nc1cc(Cl)cc(Cl)c1`, with 32.3 µg/mL (≈ 117 µM); and `CSS(=O)(=O)c1cccc2cccnc12`, with more than 35.9 µg/mL; and `CC(C)=C1SC(N2CCN(c3ccc(C)c(Cl)c3)CC2)=NC1=O`, with 1.9 µg/mL (≈ 5.43 µM). As for `CCC(CC)C(=O)N1CCN(c2ccccc2)CC1`, the kinetic solubility was more than 39.1 µg/mL. Then `Cc1cc(C(=O)OCC(=O)N(C)c2ccccc2)ccc1[N+](=O)[O-]`, with 42.1 µg/mL (≈ 128 µM); and `CC(=O)c1cccc(NC(=O)NCCc2ccc(Cl)cc2)c1`, with 1.6 µg/mL (≈ 5.05 µM); and `CC1CN=C(NCCc2ccccc2)S1` (centres undefined), with more than 33 µg/mL.

`O=C(NCC(c1ccco1)N1CCCC1)c1cc(=O)[nH]c2ccccc12` (centres undefined) registered a kinetic solubility of more than 52.7 µg/mL. Then `COC(=O)[C@H](CC(C)C)NC(=O)N1CCCCC1C` (some centres undefined), with more than 40.6 µg/mL; and `O=C(NC1CCCC1)c1cc(-c2cccc(Cl)c2)on1`, with 1.5 µg/mL (≈ 5.16 µM); and `Cc1cc(/C=C\c2ccccc2)nc2ccccc12`, with less than 0.5 µg/mL. For `O=C(Nc1nc2ccccc2s1)c1ccccc1` the value was 3.1 µg/mL (≈ 12.2 µM). `O=C(CCNC(=O)c1ccc([N+](=O)[O-])cc1)Oc1ccc(F)c(F)c1` yielded a kinetic solubility of more than 52.5 µg/mL. Then `COc1ccc(C(=O)Cn2cnc3ccccc3c2=O)c(OC)c1`, with 41.7 µg/mL (≈ 129 µM); and `Cc1nc(C(F)(F)F)ccc1C(=O)Nc1ccccc1N1CCOCC1`, with 50.8 µg/mL (≈ 139 µM); and `Cc1ccccc1OCC(=O)NCCNC(=O)c1ccccn1`, with more than 47 µg/mL. Turning to `Cc1cc(=O)n(-c2ccc(Cl)cc2)c(=O)[nH]1`, the kinetic solubility is more than 35.5 µg/mL. For `COc1ccc(C)cc1S(=O)(=O)NNc1nc(C)cc(C)n1`, the kinetic solubility is more than 48.4 µg/mL. Then `O=C(Nc1ccccc1)C1CCCN1C(=O)NCc1ccccc1` (centres undefined), with 22 µg/mL (≈ 68 µM); and `NS(=O)(=O)c1ccc(NC(=O)COC(=O)C2CC2)cc1`, with more than 44.7 µg/mL; and `CC(C)C[C@H](NC(=O)Nc1ccc2c(c1)OCCO2)C(=O)O`, with 41.1 µg/mL (≈ 133 µM).

Consider `O=C(CNC(=O)C1CC1)Nc1ccc(F)c(F)c1F`, for which the kinetic solubility is more than 40.8 µg/mL. For `CCCn1c(SCCC(=O)O)nc2ccccc21` the value was more than 39.7 µg/mL; for `O=C(NCC1CCCO1)C1CC(=O)N(c2cccc(Cl)c2)C1` (centres undefined), 46.6 µg/mL (≈ 144 µM).

In turn, `Cc1nc(N2CCCCC2)sc1C=O` displayed a kinetic solubility of more than 31.5 µg/mL. For `CCOC(=O)C1=C(C)OC(N)=C(C#N)C1c1ccccc1` (centres undefined) the value was 37.1 µg/mL (≈ 130 µM); for `CCCCNC(=O)c1cc2cccc([N+](=O)[O-])c2[nH]1`, 27.3 µg/mL (≈ 104 µM); for `CCCCNC(=O)Cn1nc(Cc2ccncc2)c2ccccc2c1=O`, more than 52.6 µg/mL. For `COc1ccc(/C=C/C(=O)c2c(C)cc(C)[nH]c2=O)c2ccccc12` the value was 15.7 µg/mL (≈ 47.1 µM); for `Cn1cccc1C(=O)NCC(c1ccc(F)cc1)N1CCOCC1` (centres undefined), 47.3 µg/mL (≈ 143 µM); for `O=C(Nc1ccccc1Cl)c1csc(-c2cccnc2)n1`, 4.3 µg/mL (≈ 13.6 µM). For `O=C(NCc1cccnc1)C(=O)Nc1nc(-c2ccccc2)cs1` the value was 4.8 µg/mL (≈ 14.2 µM); for `Cc1cc(=O)n2c(n1)NC(Nc1cccc(C)c1C)=NC2c1ccccc1` (centres undefined), 1.7 µg/mL (≈ 4.73 µM); for `CCn1ncc(N2CCOCC2)c(Cl)c1=O`, more than 36.6 µg/mL. With `COC(=O)c1ccc(/C=C/C(=O)OCC(=O)Nc2sccc2C(N)=O)cc1`, the solubility (kinetic) is 3.9 µg/mL (≈ 10 µM). In turn, `COc1ccc(NC(=O)c2ccccc2-c2ccccc2)c(C)c1` registered a solubility (kinetic) of 7.2 µg/mL (≈ 22.7 µM). For `O=C(/C=C/c1cccc(F)c1)OCC(=O)c1ccc[nH]1` the value was 7.5 µg/mL (≈ 27.4 µM); for `CC1CN(C(=O)COC(=O)c2ccc(N(C)C)cc2)CC(C)O1` (centres undefined), more than 48.1 µg/mL. Then `N#CC(C#N)=C/C=C(\Nc1ccc(Cl)cc1)c1ccc(Cl)cc1`, with more than 51 µg/mL; and `CC(=O)c1cccc(S(=O)(=O)Nc2ccccc2N2CCOCC2)c1`, with more than 54.1 µg/mL; and `Cc1cc(C(=O)COc2ccccc2C(N)=O)c(C)n1C1CC1`, with 7 µg/mL (≈ 22.4 µM). Then `Cc1ccc(C)c(OCC(=O)Nc2ccccc2C(=O)NC2CC2)c1`, with 0.9 µg/mL (≈ 2.66 µM); and `Cc1ccc(C)c(C(=O)CCC(=O)Nc2ccc(N3CCN(C)CC3)cc2C)c1`, with 55.8 µg/mL (≈ 142 µM); and `COc1ccc(CCNC(=O)C(=O)NCc2ccccn2)cc1`, with more than 47 µg/mL.

On to `Cc1ccc(N2C(=O)CSC2c2cccnc2)c(Cl)c1` (centres undefined), for which the kinetic solubility is more than 45.7 µg/mL. Then `CCc1nn(CC(=O)Nc2cc(C)ccc2C)c(=N)s1.Cl`, with more than 49 µg/mL; and `CN(C)C(=O)C1CCC(=O)N1Cc1cccs1` (centres undefined), with more than 37.8 µg/mL; and `COC(=O)c1sc(NC(=O)c2c(F)cccc2F)c(C#N)c1C`, with 7.2 µg/mL (≈ 21.4 µM). In the case of `O=C1/C(=C/c2ccc(F)cc2)Oc2cc(OC(=O)N3CCOCC3)ccc21`, the kinetic solubility is less than 0.8 µg/mL. In turn, `O=S(=O)(Nc1nccs1)c1ccc(F)cc1` registered a kinetic solubility of more than 38.7 µg/mL. For `NC(=O)Cn1cc(C(=O)c2ccccc2)c2ccccc21` the value was 10.8 µg/mL (≈ 38.8 µM); for `S=C(NCc1ccco1)Nc1ccc(Cl)cn1`, 4.1 µg/mL (≈ 15.3 µM); for `COc1cc(NC(=O)C[n+]2ccc(C(=O)c3ccccc3)cc2)cc(OC)c1.[Cl-]`, more than 61.9 µg/mL. Then `COc1ccccc1CC(=O)OCC(=O)N1CCN(c2ccc(F)cc2)CC1`, with more than 58 µg/mL; and `Cc1cc(C)n2nc(-c3ccco3)nc2n1`, with more than 32.1 µg/mL. As for `Cl.O=[N+]([O-])c1cc(CN(CCO)CCO)ccc1O`, the solubility (kinetic) is more than 43.9 µg/mL. For `CN(C(=O)CSc1nnnn1C)C1(C#N)CCCCC1` the value was more than 44.2 µg/mL; for `CNC(=S)N(CCc1c(C)[nH]c2ccccc12)Cc1cccnc1`, more than 50.8 µg/mL. Then `CCc1nc(C(N)=O)c2[nH]c(=O)n(-c3ccccc3F)c2n1`, with 10.2 µg/mL (≈ 33.9 µM); and `Cc1ccc(NC(=S)Nc2cccc3ccccc23)cc1`, with 1.5 µg/mL (≈ 5.13 µM).

Consider `Cc1cc(NC(=O)CSc2ncnc3sccc23)no1`, for which the solubility (kinetic) was found to be 19.3 µg/mL (≈ 63 µM). Then `O=C(C1CCC1)N1CCN(c2ccccc2)CC1`, with 35.6 µg/mL (≈ 146 µM); and `CC(=O)O/C(=C\c1cn(C(C)=O)c2ccccc12)C(=O)O`, with more than 43.1 µg/mL; and `N#Cc1ccc(Oc2c(Cl)cncc2Cl)cc1`, with 23.2 µg/mL (≈ 87.5 µM). Then `CN(C)S(=O)(=O)c1cccc(NC(=O)C2CCN(S(=O)(=O)c3cccs3)CC2)c1`, with 23.4 µg/mL (≈ 51.1 µM). For `O=c1[nH]c(O)c(C=Nc2ccccc2Sc2ccccc2)c(=O)[nH]1` the value was 1.3 µg/mL (≈ 3.83 µM). The molecule `COc1ccc(NC(=O)COc2ccccc2Cc2ccccc2)cn1` gave a solubility (kinetic) of 12.2 µg/mL (≈ 35 µM). For `Cc1cccc(C)c1N(CC(=O)N1CCCC1)S(C)(=O)=O` the value was 35.2 µg/mL (≈ 113 µM); for `Cc1cccc(NC(=O)N2CCCc3ccccc32)c1C`, 13.2 µg/mL (≈ 47.1 µM). For `Cl.OC(c1ccccc1)C(CN1CCOCC1)c1ccccc1` (centres undefined) the value was more than 50.1 µg/mL; for `CC(Cc1ccccc1)NC(=O)Cc1ccc([N+](=O)[O-])cc1` (centres undefined), 22.6 µg/mL (≈ 75.8 µM). For `CN(CC(=O)Nc1ccc(F)cc1)C(=O)c1ccncc1` the value was more than 43.1 µg/mL. `O=C(Cc1cccs1)N1CCN=C1SCc1ccc(F)cc1` displayed a kinetic solubility of 26 µg/mL (≈ 77.7 µM). Then `CC(C)(/C=N/O)/[N+]([O-])=C/c1ccccc1`, with more than 30.9 µg/mL. In the case of `CCOC(=O)C1=C(COC(=O)c2cccc(Cl)c2)NC(=O)NC1C` (centres undefined), the kinetic solubility is 46.2 µg/mL (≈ 131 µM). Take `Cc1cccc(NC(=O)CN(CCc2ccccc2)S(C)(=O)=O)c1`: the kinetic solubility is more than 52 µg/mL. Then `Cc1ccc(-c2csc(NC(=O)c3ccc(F)cc3)c2C(=O)O)cc1`, with more than 53.3 µg/mL; and `Cc1cc(Br)c(NC(=O)COC(=O)CC2CC3CCC2C3)c(Br)c1` (centres undefined), with 7.7 µg/mL (≈ 16.8 µM).
